Experiments:
[1] = tested on: HL-60 cells; test: Gene expression analysis with Human Cytokine CHIP (ver. 1.0) in TPA-treated neutrophile-like differentiated HL-60 cells; format: cell-based; details: genes showing fluctuation by TPA; 100 μL of 4 mM DGE aqueous solution added to 10 mL of 10^6 cells/mL, 6 hours, then TPA, total RNA 4 hours thereafter
Procedure: HL-60 cells (ATCC CCL-240) were suspended in RPMI 1640 medium (manufactured by Bio Whittaker, 12-702F) containing 10% fetal bovine serum (manufactured by JRH Biosciences) and 1.3% dimethyl sulfoxide, and the cells were cultured at 37° C. for one week in the presence of 5% carbon dioxide gas to induce differentiation to neutrophile-like cells.
The cells obtained as described above were collected by centrifugation, and suspended in 10% fetal bovine serum-containing RPMI 1640 medium so as to have a concentration of 10^6 cells/mL, and 10-mL portions of the cells were added to a 10-cm petri dish. […]
Twenty-five micrograms of each of the total RNAs obtained as described above and 100 pg of λ poly A^+ RNA-A (manufactured by Takara Shuzo Co., Ltd., TX802) were subjected to synthesis reaction of fluorescence-labeled cDNA by using RNA Fluorescence Labeling Core Kit (manufactured by Takara Shuzo Co., Ltd., TX807) and 1 mM FluoroLink Cy3-dUTP or Cy5-dUTP (manufactured by Amersham-Pharmacia Biotech, PA53022(Cy3), PA55022(Cy5) in accordance with the instruction for the kit and the resulting cDNA was purified. The solutions of fluorescence-labeled DNA were mixed in the combination of Table 4, and the mixture was subjected to a chloroform-isoamyl alcohol (24:1) extraction. […]

[2] = tested on: HL-60 cells; test: Analysis of expression using DNA microarray (740 clones from DNA microbeads screening) in TPA-treated differentiated HL-60 cells; format: cell-based, human; details: 4 mM DGE 100 μL in 10 mL, 6 hours, then TPA, RNA 4 hours thereafter, expression ratio 0.55 or less or 1.8 or more
Procedure: The reaction for PCR was carried out by using a primer pair having the sequences shown in SEQ ID NO: 10 and SEQ ID NO: 11 of Sequence Listing, with the 740 clones of plasmids obtained in Example 3 as a template. Next, the amplified product was purified by ethanol precipitation, and thereafter the product was dissolved in 1×SolutionT (manufactured by Takara Shuzo Co., Ltd.) so as to have a concentration of 0.3 μg/μl, and this solution was used as a spotting solution. The spotting solution was spotted on MAS-coated slide glass (manufactured by Matsunami Glass), amino-group carrying slide glass, by using Affymetrix 417 Arrayer (manufactured by Affymetrix). The spotted glass was incubated at 37° C. and humidity of 90% for 1 hour, and thereafter cross-linked by UV irradiation at energy of 60 mJ/cm^2. Further, the slide glass was washed once with 0.2% SDS and then twice with distilled water, and thereafter immersed in a blocking solution comprising 2.75 g of succinic anhydride, 162.5 ml of N-methyl-2-pyrrolidone and 15 ml of 1 M borate buffer (pH 8.0) for 20 minutes, to block free amino groups. Next, the slide glass was washed twice with distilled water and subjected to thermal denaturation in boiling water for 2 minutes, and rapidly cooled in 100% ethanol at ice temperature. Thereafter, the slide glass was dried by a low-speed centrifugation at 1000 rpm or so, and used for the following experiment. […]
A PolyA(+) RNA was prepared from HL-60 cells prepared in item (2) of Example 4 by using Trizol Reagent (manufactured by Gibco BRL) and Oligotex-dT30 <Super> (manufactured by Takara Shuzo Co., Ltd.) in accordance with the protocol for each of the kits. Next, each of cDNAs labeled with Cy3 and Cy5 was prepared by using RNA Fluorescence Labeling Core Kit (M-MLV Version) (manufactured by Takara Shuzo Co., Ltd.) in accordance with the protocol for the kit with 1.0 μg of PolyA(+) RNA as a template, and their cDNAs were mixed in the combinations of the sample RNA shown in Table 8.
Next, hybridization of the DNA microarray prepared in item (1) of Example 4 with the above-mentioned mixtures (4 kinds) of Cy3-labeled cDNA and Cy5-labeled cDNA was carried out in accordance with the instruction manual of IntelliGene (manufactured by Takara Shuzo Co., Ltd.), and the array was subjected to procedures of washing and drying. Subsequently, the fluorescence images were obtained for Cy3 (excitation wavelength: 532 nm, detection wavelength: 570 nm) and Cy5 (excitation wavelength: 635 nm, detection wavelength: 660 nm) by using Affymetrix 428 Array Scanner (manufactured by Affymetrix). […]

[3] = tested on: plastic adherent monocytes; test: Gene expression analysis with Human Cytokine CHIP (ver. 2.0) in LPS-treated plastic adherent monocytes; format: cell-based
Procedure: Four-hundred milliliters of blood was collected from a human normal individual donor. The collected blood was diluted 2-folds with PBS(−), overlaid on Ficoll-paque (manufactured by Pharmacia), and centrifuged at 500×g for 20 minutes. The peripheral blood mononuclear cells (PBMCs) in the intermediate layer was collected with a pipette, and washed with RPMI 1640 medium (manufactured by Bio Whittaker). The collected PBMCs were suspended in a storage solution of 90% FCS (manufactured by JRH Biosciences)/10% dimethyl sulfoxide, and stored in liquid nitrogen. During the experiment, these stored PBMCs were rapidly melted in water bath at 37° C., and washed with RPMI 1640 medium containing 10 μg/ml Dnase (manufactured by Calbiochem). Thereafter, the number of living cells was calculated by trypan blue staining method, and subjected to each experiment.
PBMCs were suspended in RPMI 1640 medium containing 5% human serum of blood type-AB, 0.1 mM nonessential amino acid, 1 mM sodium pyruvate, 2 mM L-glutamine (hereinabove manufactured by Bio Whittaker), 10 mM HEPES (manufactured by nakalai tesque), and 1% streptomycin-penicillin (manufactured by Gibco BRL) (hereinafter simply referred to as “5HRPMI medium”) so as to have a concentration of 1×10^7 cells/mL. Thereafter, 15 ml of the suspension was spread on a 100-mm petri dish (manufactured by Asahi Techno Glass), and the cells were incubated in a wet-type incubator at 37° C. in the presence of 5% CO2 for 1.5 hours. […]
The synthesis of cDNA was carried out in accordance with the method described in item (2) of Example 1, provided that the combination of the solutions of fluorescence-labeled DNA was in accordance with that shown in Table 6. […]
The fluorescence signal was scanned for each spot of the above-mentioned chip by using Affymetrix 428 Array Scanner (manufactured by Takara Shuzo Co., Ltd.). The fluorescence signal was quantified for each spot by using ImaGene (manufactured by Takara Shuzo Co., Ltd., BD001) on the bases of the image data. […]

[4] = clones decreased by treatment with TPA
[5] = clones increased by treatment with TPA

## O=C1C=CC(CO)OC1O [DGE, L-glycero-1,5-epoxy-1αβ,6-dihydroxy-cis-hex-3-en-2-one]
[1]
  Expression of Group A-1 genes (BMP-6, CCR-1, HGF, ICAM-1, IL-1β, IL-16, LIF, Osteopontin, TNF-α, Neuropilin-1; Table 5): suppressed
  Expression of Group B-1 genes (Heme oxygenase-1, Thioredoxin reductase-1; Table 5): accelerated
[2]; [4]
  Expression of Group C-3 clones (NDRG1, ADAR, SF3B2, ILF3, VARS2, SEQ ID NO: 12; Tables 9, 11): further decreased
  Expression of Group D-3 clones (EEF1A1, RPL17, RPL24, SFRS2, TPT1, UQCRB, RPS15A, RPL27; Tables 10, 11): further increased
[2]; [5]
  Expression of Group A-3 clones (STAT6, FLJ22298 fis clone HRC04637; Tables 9, 11): further decreased
  Expression of Group B-3 clones (SUI1, HSPC014; Tables 9, 11): further increased
[3]; 10 μL of 20 mM DGE aqueous solution in 10 mL medium, 4 hours, then LPS, total RNA 4 hours thereafter
  Increase by LPS in expression of Group E genes (IL2RA, IL6, CD166, IRF1, IL15RA, NFKB1, CASP1, IL1B, TNF-α, GRO1, IL1A, INHBA, IL7R, PBEF, LARC, IL8; Table 7): suppressed
[3]; DGE+LPS versus negative control
  Expression of Group G genes (Heme oxygenase-1 HMOX1; Table 7): increased
[3]; genes not fluctuating by LPS, DGE+LPS versus negative control
  Expression of Group F genes (CSF1R, CXCR4, ENG; Table 7): decreased
